Experimental data reported in patent US20240059688A1, “CONOLIDINE ANALOGUES AS SELECTIVE ACKR3 MODULATORS FOR THE TREATMENT OF CANCER” (Luxembourg Institute of Health (LIH), priority 2020, published 2024).

How the values were obtained:
CX3CR1 = biological target: T1, CX3CR1 (Homo sapiens, UniProt P49238); experiment: NanoBiT β-arrestin-1 recruitment, receptor selectivity panel, CX3CR1; type: cell-based; details: higher concentrations (3 μM, 10 μM); FIG. 3 sections B and C
T1 construct: expressed in transfected cells; host or cells: U87
T1 sequence (P49238 1-355): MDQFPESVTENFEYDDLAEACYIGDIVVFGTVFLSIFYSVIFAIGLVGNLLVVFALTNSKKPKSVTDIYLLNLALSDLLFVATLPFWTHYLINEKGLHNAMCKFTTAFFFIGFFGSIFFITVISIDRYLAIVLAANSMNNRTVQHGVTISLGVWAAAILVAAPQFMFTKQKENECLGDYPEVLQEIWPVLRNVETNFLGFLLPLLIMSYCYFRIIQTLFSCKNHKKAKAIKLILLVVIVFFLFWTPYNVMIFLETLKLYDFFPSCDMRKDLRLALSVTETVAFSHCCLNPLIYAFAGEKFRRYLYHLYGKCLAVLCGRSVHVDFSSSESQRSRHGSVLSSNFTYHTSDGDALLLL
Method: To further assess the selectivity profile of the compounds of the invention towards ACKR3, the ability to activate the 21 classical and 4 atypical chemokines receptors and related receptors was tested using the NanoBiT assay based β-arrestin-1 recruitment described previously. The 4 classical opioid receptors described above were also included in the experimental setup. The compounds WW-1 (conolidine) and WW-12 were tested at three different concentrations, 1 μM, 3 μM and 10 μM.
This possible off-target effect was further characterized by comparing the ability of the two molecules to activate receptors ACKR4, CX3CR1 and CCR3 with reference ligands for the receptors, namely CCL19, CX3CL1 and CCL13.
Ligand-induced β-arrestin recruitment to chemokine and opioid receptors was monitored by NanoLuc complementation assay (NanoBiT, Promega). […] Ligand-induced, β-arrestin to GPCRs was evaluated with a Mithras LB940 luminometer (Berthold Technologies, running on MicroWin 2010 5.19 software (Mikrotek Laborsysteme)) for 20 minutes.
For single dose screening experiments on all chemokine receptors(FIG. 3), the results are represented as percentage of signal monitored with 100 nM of one known agonist chemokine listed in the IUPHAR repository of chemokine receptor ligands which was added as positive control.

mouse ACKR3 = biological target: T2, mouse ACKR3 (Mus musculus, UniProt P56485); experiment: NanoBiT-based β-arrestin-2 recruitment assay, mouse ACKR3 in U87 cells; type: cell-based; details: for agonist efficacy at mACKR3 compared to CXCL-12: NanoBiT β-arrestin-2 recruitment, reference ligand CXCL-12; for EC50: NanoBiT, U87 cells, FIG. 1 section C, read-out: EC50, β-arrestin-2 recruitment to mouse receptor (mACKR3)
T2 construct: expressed in transfected cells; host or cells: U87
Method: Concentration-response studies were performed with molecules WW-1 (conolidine) and WW-12 on the human and mouse ACKR3 receptors in U87 cells using a NanoBiT-based β-arrestin-2 recruitment assay […] to evaluate their efficacy and potency towards the two receptors.
Ligand-induced β-arrestin recruitment to chemokine and opioid receptors was monitored by NanoLuc complementation assay (NanoBiT, Promega). In brief, 1.2×10^6 U87 cells were plated in 10-cm culture dishes and 48 hours later co-transfected with pNBe vectors encoding GPCRs (ACKR3, MOR, DOR, KOR, or NOP) C-terminally tagged with SmBiT and human β-arrestin-1 (arrestin-2) or β-arrestin-2 (arrestin-3) N-terminally fused to LgBiT. 48 hours post-transfection cells were harvested, incubated 25 minutes at 37° C. with Nano-Glo Live Cell substrate diluted 200-fold and distributed into white 96-well plates (5×10^4 cells per well). Ligand-induced, β-arrestin to GPCRs was evaluated with a Mithras LB940 luminometer (Berthold Technologies, running on MicroWin 2010 5.19 software (Mikrotek Laborsysteme)) for 20 minutes.
For concentration-response curves (FIG. 2), the signal recorded with a saturating concentration of full agonist for each receptor was set as 100%. To evaluate the antagonist properties of ligands, full agonists of each receptor (50 nM BAM22 for MOR, 50 nM dynorphin A for KOR, 70 nM met-enkephalin for DOR, 70 nM nociceptin for NOP and 4 nM CXCL12 for ACKR3) were added after the 20-minute incubation with the ligands.

T2 sequence (P56485 whole entry): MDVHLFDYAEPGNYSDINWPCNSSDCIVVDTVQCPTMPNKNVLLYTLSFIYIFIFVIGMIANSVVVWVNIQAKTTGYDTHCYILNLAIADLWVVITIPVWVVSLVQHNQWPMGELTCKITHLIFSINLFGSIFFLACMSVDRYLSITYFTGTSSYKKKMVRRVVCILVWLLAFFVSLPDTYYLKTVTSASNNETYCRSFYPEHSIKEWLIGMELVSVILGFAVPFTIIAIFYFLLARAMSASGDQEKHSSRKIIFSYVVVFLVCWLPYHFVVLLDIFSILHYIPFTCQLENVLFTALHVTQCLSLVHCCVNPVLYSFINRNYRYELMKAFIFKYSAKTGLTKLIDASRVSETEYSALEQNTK
T2 sequence (P32121 whole entry partner): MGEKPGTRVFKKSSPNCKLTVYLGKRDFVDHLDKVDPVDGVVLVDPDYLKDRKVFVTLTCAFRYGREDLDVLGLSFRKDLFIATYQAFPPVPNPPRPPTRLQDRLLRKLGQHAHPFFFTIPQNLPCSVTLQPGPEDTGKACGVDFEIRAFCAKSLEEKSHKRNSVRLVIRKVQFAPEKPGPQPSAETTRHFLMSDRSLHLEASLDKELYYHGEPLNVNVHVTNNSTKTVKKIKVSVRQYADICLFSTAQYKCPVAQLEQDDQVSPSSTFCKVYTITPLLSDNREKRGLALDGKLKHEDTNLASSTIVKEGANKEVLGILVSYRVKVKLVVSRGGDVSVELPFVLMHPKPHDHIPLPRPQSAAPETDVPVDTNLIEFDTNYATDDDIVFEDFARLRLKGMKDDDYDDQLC

activation of CX3CR1 (β-arrestin-1 recruitment) in receptor panel (CX3CR1) | agonist efficacy at mACKR3 compared to CXCL-12 (mouse ACKR3) | EC50 (mouse ACKR3) | Compound
weak activation | full agonists | 22 µM | C/C=C1/CN2CC[C@H]1C(=O)c1[nH]c3ccccc3c1C2 [WW-1, (4E,5R)-4-ethylidene-1,4,5,7-tetrahydro-2,5-ethanoazocino[4,3-b]indol-6(3H)-one]
weak activation | full agonists | 0.9 µM | C/C=C1/CN(CCCCC)CC[C@H]1C(=O)c1cc2ccccc2[nH]1 [WW-12, [(3E,4R)-3-ethylidene-1-pentylpiperidin-4-yl](1H-indol-2-yl)methanone]
